Laboratory results from the kinase profiling compilation of Christmann-Franck et al. (2016).

How the values were obtained:
Assay in all cases: radiometric filter-binding kinase assay
ABL1 (human) = ABL1 (human) (UniProt P00519)
CDK9 CCNT1 (human) = CDK9 CCNT1 (human) (UniProt P50750+O60563)
CSNK1G2 (human) = CSNK1G2 (human) (UniProt P78368)
DDR2 (human) = DDR2 (human) (UniProt Q16832)
EIF2AK3 (human) = EIF2AK3 (human) (UniProt Q9NZJ5)
GSK3B (human) = GSK3B (human) (UniProt P49841)
IRAK1 (human) = IRAK1 (human) (UniProt P51617)
MAP4K3 (human) = MAP4K3 (human) (UniProt Q8IVH8)
MAP4K5 (human) = MAP4K5 (human) (UniProt Q9Y4K4)
Sequence of MAP4K5 (human) (Q9Y4K4 whole entry, looked up): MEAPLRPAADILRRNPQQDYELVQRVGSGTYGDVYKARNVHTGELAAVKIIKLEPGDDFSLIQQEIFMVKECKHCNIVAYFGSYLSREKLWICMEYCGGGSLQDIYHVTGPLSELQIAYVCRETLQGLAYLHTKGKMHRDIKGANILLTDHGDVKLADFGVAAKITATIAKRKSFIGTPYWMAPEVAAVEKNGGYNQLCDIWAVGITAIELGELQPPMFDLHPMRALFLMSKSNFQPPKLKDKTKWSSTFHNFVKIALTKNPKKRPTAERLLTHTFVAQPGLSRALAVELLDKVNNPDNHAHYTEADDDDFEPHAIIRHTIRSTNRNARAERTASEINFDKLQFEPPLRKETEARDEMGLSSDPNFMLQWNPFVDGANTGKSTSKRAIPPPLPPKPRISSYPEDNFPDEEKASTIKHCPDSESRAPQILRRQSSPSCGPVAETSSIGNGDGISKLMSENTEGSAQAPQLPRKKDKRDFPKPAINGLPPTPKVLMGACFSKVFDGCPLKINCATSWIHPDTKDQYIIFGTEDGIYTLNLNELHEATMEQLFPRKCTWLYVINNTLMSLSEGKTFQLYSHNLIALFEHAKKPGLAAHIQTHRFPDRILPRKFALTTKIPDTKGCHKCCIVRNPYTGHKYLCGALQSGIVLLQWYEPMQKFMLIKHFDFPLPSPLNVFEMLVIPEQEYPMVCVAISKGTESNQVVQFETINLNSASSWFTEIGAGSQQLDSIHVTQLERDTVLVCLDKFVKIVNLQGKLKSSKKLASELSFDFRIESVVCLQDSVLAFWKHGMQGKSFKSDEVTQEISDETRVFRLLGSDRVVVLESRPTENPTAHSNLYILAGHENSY

MAPK7 (human) = MAPK7 (human) (UniProt Q13164)
Sequence of MAPK7 (human) (Q13164 whole entry, looked up): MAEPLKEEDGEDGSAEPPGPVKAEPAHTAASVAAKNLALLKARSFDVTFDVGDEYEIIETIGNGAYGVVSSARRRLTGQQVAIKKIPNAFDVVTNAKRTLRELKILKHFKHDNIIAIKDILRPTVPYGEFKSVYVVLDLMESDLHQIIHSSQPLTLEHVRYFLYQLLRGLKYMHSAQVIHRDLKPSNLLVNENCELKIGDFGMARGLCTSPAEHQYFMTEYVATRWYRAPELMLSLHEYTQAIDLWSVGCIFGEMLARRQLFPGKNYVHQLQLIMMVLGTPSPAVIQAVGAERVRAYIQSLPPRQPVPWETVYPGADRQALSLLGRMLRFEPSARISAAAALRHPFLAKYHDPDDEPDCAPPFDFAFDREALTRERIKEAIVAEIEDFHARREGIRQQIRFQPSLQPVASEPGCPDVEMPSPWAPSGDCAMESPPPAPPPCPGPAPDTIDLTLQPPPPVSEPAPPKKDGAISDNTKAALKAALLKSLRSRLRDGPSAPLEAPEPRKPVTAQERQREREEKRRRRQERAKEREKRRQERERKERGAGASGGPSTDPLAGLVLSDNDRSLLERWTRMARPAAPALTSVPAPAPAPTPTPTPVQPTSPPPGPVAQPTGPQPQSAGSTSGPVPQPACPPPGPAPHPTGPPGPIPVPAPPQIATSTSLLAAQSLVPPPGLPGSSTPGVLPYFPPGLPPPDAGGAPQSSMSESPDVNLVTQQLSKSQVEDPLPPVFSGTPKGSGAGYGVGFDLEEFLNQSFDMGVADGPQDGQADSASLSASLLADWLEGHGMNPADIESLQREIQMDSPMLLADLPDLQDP

[1] = tested on: OXSR1 (human), O95747 [T185E]
PDGFRA (human) = PDGFRA (human) (UniProt P16234)
[2] = molecular target: PRKAA1 PRKAB2 PRKAG1 (human) (UniProt O43741+Q13131+P54619)
Sequence of PRKAA1 PRKAB2 PRKAG1 (human) (O43741 whole entry, looked up): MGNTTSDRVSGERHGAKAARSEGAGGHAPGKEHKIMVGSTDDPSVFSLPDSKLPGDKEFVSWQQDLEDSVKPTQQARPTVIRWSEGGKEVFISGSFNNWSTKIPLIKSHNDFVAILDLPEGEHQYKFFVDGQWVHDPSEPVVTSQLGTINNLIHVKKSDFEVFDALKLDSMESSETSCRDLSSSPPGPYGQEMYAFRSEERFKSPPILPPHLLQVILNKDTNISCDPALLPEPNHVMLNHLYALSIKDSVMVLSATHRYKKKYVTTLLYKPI
Sequence of PRKAA1 PRKAB2 PRKAG1 (human) (P54619 whole entry, looked up): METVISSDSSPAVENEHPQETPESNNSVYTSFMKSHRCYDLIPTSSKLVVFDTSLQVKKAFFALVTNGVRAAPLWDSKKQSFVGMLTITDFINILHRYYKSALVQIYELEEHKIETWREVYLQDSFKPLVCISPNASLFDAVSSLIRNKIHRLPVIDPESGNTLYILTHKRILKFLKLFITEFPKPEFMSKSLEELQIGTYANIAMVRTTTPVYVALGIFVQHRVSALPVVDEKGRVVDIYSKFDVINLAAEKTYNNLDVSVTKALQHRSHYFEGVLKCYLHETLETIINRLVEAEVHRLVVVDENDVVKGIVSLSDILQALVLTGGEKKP
Sequence of PRKAA1 PRKAB2 PRKAG1 (human) (Q13131 whole entry, looked up): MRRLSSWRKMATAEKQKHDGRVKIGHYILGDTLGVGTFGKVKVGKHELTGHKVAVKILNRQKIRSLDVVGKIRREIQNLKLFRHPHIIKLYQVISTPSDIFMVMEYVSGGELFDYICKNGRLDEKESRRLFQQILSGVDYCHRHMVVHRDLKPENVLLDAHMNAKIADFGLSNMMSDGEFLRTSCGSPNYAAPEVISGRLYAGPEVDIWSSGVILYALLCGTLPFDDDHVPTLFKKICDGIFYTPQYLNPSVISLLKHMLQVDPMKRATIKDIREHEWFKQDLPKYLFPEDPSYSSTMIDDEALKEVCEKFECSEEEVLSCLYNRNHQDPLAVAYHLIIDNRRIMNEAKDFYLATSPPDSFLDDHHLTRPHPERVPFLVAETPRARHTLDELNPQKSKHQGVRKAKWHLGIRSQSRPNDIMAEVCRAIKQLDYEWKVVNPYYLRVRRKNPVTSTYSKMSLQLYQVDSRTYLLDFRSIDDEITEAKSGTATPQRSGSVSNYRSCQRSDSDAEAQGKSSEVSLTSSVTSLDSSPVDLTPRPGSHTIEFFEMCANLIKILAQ

PRKCG (human) = PRKCG (human) (UniProt P05129)
PTK6 (human) = PTK6 (human) (UniProt Q13882)
SIK2 (human) = SIK2 (human) (UniProt Q9H0K1)
SIK3 (human) = SIK3 (human) (UniProt Q9Y2K2)
SRPK1 (human) = SRPK1 (human) (UniProt Q96SB4)
STK16 (human) = STK16 (human) (UniProt O75716)
Sequence of STK16 (human) (O75716 whole entry, looked up): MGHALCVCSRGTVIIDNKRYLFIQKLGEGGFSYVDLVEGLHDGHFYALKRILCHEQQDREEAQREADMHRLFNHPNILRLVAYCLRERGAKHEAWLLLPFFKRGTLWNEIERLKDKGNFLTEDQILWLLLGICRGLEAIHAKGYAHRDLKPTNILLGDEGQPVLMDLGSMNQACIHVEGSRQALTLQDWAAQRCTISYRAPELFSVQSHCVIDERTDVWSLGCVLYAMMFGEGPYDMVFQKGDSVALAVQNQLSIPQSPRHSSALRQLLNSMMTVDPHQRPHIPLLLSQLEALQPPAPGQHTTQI

STK24 (human) = STK24 (human) (UniProt Q9Y6E0)
STK33 (human) = STK33 (human) (UniProt Q9BYT3)
TEK (human) = TEK (human) (UniProt Q02763)
TESK1 (human) = TESK1 (human) (UniProt Q15569)
[3] = tested on: TGFBR1 (human), P36897 [T204D]
TLK1 (human) = TLK1 (human) (UniProt Q9UKI8)
TSSK1B (human) = TSSK1B (human) (UniProt Q9BXA7)
TTBK1 (human) = TTBK1 (human) (UniProt Q5TCY1)
TTBK2 (human) = TTBK2 (human) (UniProt Q6IQ55)
ULK1 (human) = ULK1 (human) (UniProt O75385)
Sequence of ULK1 (human) (O75385 whole entry, looked up): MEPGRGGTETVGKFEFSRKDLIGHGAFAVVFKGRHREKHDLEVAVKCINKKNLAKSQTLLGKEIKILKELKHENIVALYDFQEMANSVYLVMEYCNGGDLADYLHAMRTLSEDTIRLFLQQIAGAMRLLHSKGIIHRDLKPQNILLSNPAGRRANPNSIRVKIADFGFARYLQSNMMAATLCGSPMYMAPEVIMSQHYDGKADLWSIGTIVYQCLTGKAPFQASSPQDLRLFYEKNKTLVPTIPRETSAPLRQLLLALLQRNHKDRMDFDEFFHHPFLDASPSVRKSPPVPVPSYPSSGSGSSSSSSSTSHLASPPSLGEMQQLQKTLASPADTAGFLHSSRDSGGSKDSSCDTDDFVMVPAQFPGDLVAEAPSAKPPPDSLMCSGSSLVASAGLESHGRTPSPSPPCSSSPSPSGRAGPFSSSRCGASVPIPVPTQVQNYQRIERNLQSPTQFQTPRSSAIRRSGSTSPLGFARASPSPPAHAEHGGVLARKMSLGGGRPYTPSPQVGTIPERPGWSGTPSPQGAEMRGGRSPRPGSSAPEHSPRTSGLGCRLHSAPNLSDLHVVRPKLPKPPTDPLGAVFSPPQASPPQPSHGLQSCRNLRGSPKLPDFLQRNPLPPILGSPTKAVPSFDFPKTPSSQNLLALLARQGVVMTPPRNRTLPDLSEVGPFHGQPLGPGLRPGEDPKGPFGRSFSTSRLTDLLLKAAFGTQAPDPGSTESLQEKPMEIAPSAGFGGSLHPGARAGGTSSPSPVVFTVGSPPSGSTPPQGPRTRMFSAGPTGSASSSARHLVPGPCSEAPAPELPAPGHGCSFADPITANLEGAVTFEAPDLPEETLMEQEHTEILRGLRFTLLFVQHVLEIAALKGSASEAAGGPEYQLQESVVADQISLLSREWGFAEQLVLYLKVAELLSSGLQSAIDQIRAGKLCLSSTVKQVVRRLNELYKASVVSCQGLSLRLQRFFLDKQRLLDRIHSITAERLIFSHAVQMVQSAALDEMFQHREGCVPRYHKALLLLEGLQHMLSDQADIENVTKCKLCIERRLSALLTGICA

ULK2 (human) = ULK2 (human) (UniProt Q8IYT8)
WNK1 (human) = WNK1 (human) (UniProt Q9H4A3)
ZAP70 (human) = ZAP70 (human) (UniProt P43403)

Sequence of CSNK1G2 (human) (P78368 whole entry, looked up): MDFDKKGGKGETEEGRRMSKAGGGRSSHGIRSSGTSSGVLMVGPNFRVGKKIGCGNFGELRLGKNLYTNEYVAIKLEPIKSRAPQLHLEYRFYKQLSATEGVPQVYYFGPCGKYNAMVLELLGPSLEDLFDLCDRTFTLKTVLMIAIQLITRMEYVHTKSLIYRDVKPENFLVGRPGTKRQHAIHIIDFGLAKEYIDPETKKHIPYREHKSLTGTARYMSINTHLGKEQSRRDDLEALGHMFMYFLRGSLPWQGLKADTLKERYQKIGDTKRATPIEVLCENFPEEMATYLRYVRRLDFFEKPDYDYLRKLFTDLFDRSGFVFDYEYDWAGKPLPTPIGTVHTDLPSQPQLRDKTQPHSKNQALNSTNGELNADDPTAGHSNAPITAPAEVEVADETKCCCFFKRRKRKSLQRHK
Sequence of GSK3B (human) (P49841 whole entry, looked up): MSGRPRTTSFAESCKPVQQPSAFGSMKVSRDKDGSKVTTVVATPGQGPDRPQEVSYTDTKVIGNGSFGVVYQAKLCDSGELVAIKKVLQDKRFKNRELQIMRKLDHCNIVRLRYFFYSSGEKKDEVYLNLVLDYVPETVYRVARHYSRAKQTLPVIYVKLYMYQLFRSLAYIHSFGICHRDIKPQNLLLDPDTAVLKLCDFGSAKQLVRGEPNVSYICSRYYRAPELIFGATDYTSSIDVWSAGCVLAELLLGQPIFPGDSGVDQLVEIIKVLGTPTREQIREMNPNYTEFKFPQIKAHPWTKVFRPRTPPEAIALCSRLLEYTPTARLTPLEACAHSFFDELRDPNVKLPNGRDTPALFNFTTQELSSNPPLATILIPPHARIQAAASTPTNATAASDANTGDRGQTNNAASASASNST

`CCn1c(-c2nonc2N)nc2cncc(CNC3CCNCC3)c21` was tested, and the residual activity (ABL1 (human); compound 0.1 µM) was 102%, the residual activity (ABL1 (human); compound 1.0 µM) was 109% and the residual activity (ABL1 (human); compound 10.0 µM) was 96%. The residual activity (CDK9 CCNT1 (human); compound 0.1 µM) was 103%, the residual activity (CDK9 CCNT1 (human); compound 1.0 µM) was 115% and the residual activity (CDK9 CCNT1 (human); compound 10.0 µM) was 103%. For the same molecule, the residual activity (CSNK1G2 (human); compound 0.1 µM) was 101%, the residual activity (CSNK1G2 (human); compound 1.0 µM) was 92% and the residual activity (CSNK1G2 (human); compound 10.0 µM) was 92%. The residual activity (DDR2 (human); compound 0.1 µM) was 108%, the residual activity (DDR2 (human); compound 1.0 µM) was 97% and the residual activity (DDR2 (human); compound 10.0 µM) was 104%. It also gave a residual activity (EIF2AK3 (human); compound 0.1 µM) of 93%, a residual activity (EIF2AK3 (human); compound 1.0 µM) of 105% and a residual activity (EIF2AK3 (human); compound 10.0 µM) of 94%. For the same molecule, the residual activity (GSK3B (human); compound 0.1 µM) was 87%, the residual activity (GSK3B (human); compound 1.0 µM) was 66% and the residual activity (GSK3B (human); compound 10.0 µM) was 25%. For the same molecule, the residual activity (IRAK1 (human); compound 0.1 µM) was 99%, the residual activity (IRAK1 (human); compound 1.0 µM) was 103% and the residual activity (IRAK1 (human); compound 10.0 µM) was 75%. The residual activity (MAP4K3 (human); compound 0.1 µM) was 99%, the residual activity (MAP4K3 (human); compound 10.0 µM) was 66% and the residual activity (MAP4K5 (human); compound 0.1 µM) was 107%. The residual activity (MAP4K5 (human); compound 1.0 µM) was 103%, the residual activity (MAP4K5 (human); compound 10.0 µM) was 84% and the residual activity (MAPK7 (human); compound 0.1 µM) was 96%. The residual activity (MAPK7 (human); compound 1.0 µM) was 83%, the residual activity (MAPK7 (human); compound 10.0 µM) was 64% and the residual activity ([1]; compound 0.1 µM) was 107%. It also gave a residual activity ([1]; compound 1.0 µM) of 102%, a residual activity ([1]; compound 10.0 µM) of 97% and a residual activity (PDGFRA (human); compound 0.1 µM) of 120%. It also gave a residual activity (PDGFRA (human); compound 1.0 µM) of 101%, a residual activity (PDGFRA (human); compound 10.0 µM) of 99% and a residual activity ([2]; compound 0.1 µM) of 115%. It also gave a residual activity ([2]; compound 1.0 µM) of 78%, a residual activity ([2]; compound 10.0 µM) of 34% and a residual activity (PRKCG (human); compound 0.1 µM) of 96%. The residual activity (PRKCG (human); compound 1.0 µM) was 80%, the residual activity (PRKCG (human); compound 10.0 µM) was 46% and the residual activity (PTK6 (human); compound 0.1 µM) was 91%. The residual activity (PTK6 (human); compound 10.0 µM) was 91%, the residual activity (SIK2 (human); compound 0.1 µM) was 97% and the residual activity (SIK2 (human); compound 1.0 µM) was 93%. For the same molecule, the residual activity (SIK2 (human); compound 10.0 µM) was 95%, the residual activity (SIK3 (human); compound 0.1 µM) was 89% and the residual activity (SIK3 (human); compound 1.0 µM) was 94%. The residual activity (SIK3 (human); compound 10.0 µM) was 89%, the residual activity (SRPK1 (human); compound 0.1 µM) was 94% and the residual activity (SRPK1 (human); compound 1.0 µM) was 99%. It also gave a residual activity (SRPK1 (human); compound 10.0 µM) of 86%, a residual activity (STK16 (human); compound 1.0 µM) of 103% and a residual activity (STK16 (human); compound 10.0 µM) of 83%. The residual activity (STK24 (human); compound 0.1 µM) was 86%, the residual activity (STK24 (human); compound 1.0 µM) was 91% and the residual activity (STK24 (human); compound 10.0 µM) was 73%. The residual activity (STK33 (human); compound 0.1 µM) was 104%, the residual activity (STK33 (human); compound 1.0 µM) was 106% and the residual activity (STK33 (human); compound 10.0 µM) was 74%. It also gave a residual activity (TEK (human); compound 1.0 µM) of 116%, a residual activity (TEK (human); compound 10.0 µM) of 111% and a residual activity (TESK1 (human); compound 0.1 µM) of 103%. For the same molecule, the residual activity (TESK1 (human); compound 1.0 µM) was 114%, the residual activity (TESK1 (human); compound 10.0 µM) was 104% and the residual activity ([3]; compound 0.1 µM) was 85%. For the same molecule, the residual activity ([3]; compound 1.0 µM) was 90%, the residual activity ([3]; compound 10.0 µM) was 92% and the residual activity (TLK1 (human); compound 0.1 µM) was 92%. For the same molecule, the residual activity (TLK1 (human); compound 1.0 µM) was 92%, the residual activity (TLK1 (human); compound 10.0 µM) was 88% and the residual activity (TSSK1B (human); compound 0.1 µM) was 88%. For the same molecule, the residual activity (TSSK1B (human); compound 10.0 µM) was 42%, the residual activity (TTBK1 (human); compound 0.1 µM) was 104% and the residual activity (TTBK1 (human); compound 1.0 µM) was 100%. It also gave a residual activity (TTBK1 (human); compound 10.0 µM) of 91%, a residual activity (TTBK2 (human); compound 0.1 µM) of 91% and a residual activity (TTBK2 (human); compound 1.0 µM) of 95%. The residual activity (TTBK2 (human); compound 10.0 µM) was 101%, the residual activity (ULK1 (human); compound 0.1 µM) was 83% and the residual activity (ULK1 (human); compound 1.0 µM) was 74%. It also gave a residual activity (ULK1 (human); compound 10.0 µM) of 43%, a residual activity (ULK2 (human); compound 0.1 µM) of 93% and a residual activity (ULK2 (human); compound 1.0 µM) of 98%. It also gave a residual activity (ULK2 (human); compound 10.0 µM) of 73%, a residual activity (WNK1 (human); compound 0.1 µM) of 106% and a residual activity (WNK1 (human); compound 1.0 µM) of 102%. It also gave a residual activity (WNK1 (human); compound 10.0 µM) of 100%, a residual activity (ZAP70 (human); compound 0.1 µM) of 83% and a residual activity (ZAP70 (human); compound 1.0 µM) of 84%. It also gave a residual activity (ZAP70 (human); compound 10.0 µM) of 84%.
